Values quoted from earlier work, collected in patent US20090137653A1, “SUBSTITUTED BENZYLAMINES AS CYP2A INHIBITORS AND USES THEREOF TO TREAT NICOTINE DEPENDENCE” (INFLAYZME PHARMACEUTICALS LTD., priority 2005, published 2009).

What was measured:
CYP2A6 = CYP2A6 (Homo sapiens, UniProt P11509); conditions: read-out: CYP2A6 Ki; human liver microsomes
Sequence of CYP2A6 (P11509 whole entry): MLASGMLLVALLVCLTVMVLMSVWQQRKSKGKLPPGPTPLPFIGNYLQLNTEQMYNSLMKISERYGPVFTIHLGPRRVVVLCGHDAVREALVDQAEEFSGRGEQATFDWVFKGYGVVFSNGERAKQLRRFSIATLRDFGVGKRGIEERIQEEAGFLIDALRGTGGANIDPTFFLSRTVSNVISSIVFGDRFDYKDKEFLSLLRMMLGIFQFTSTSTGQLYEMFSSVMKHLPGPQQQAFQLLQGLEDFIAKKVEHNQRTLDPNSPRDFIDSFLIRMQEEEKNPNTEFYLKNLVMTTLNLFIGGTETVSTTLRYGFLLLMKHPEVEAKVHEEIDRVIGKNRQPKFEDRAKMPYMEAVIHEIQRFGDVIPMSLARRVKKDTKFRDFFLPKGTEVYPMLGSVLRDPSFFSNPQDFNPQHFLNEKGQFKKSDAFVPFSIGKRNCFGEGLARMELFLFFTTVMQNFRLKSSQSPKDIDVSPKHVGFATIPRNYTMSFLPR

CN1CCCC1c1cccnc1 (stereo not drawn) [nicotine]
half-life (in vivo): 1 to 2 h | eliminated by first pass effect (taken orally, liver): around 70%

N[C@@H]1C[C@H]1c1ccccc1 (racemic) [tranylcypromine]
Ki (CYP2A6): 200 nM
